From PubChem BioAssay (NCI)
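Dose response: 5 concentrations. Exposure: 48 h. Format: 96-well plates. Endpoint: linear interpolation; highest concentration if not reached. GI50: concentration for 50% inhibition of growth. TGI marks complete inhibition of growth.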

How the values were obtained:
Assay in all cases: growth of human tumour cells (NCI), 48 h
OVCAR-4 ovarian = system: OVCAR-4 ovarian
SN12C renal = system: SN12C renal
CCRF-CEM leukemia = system: CCRF-CEM leukemia
OVCAR-5 ovarian = system: OVCAR-5 ovarian
HCT-116 colon = system: HCT-116 colon
HL-60(TB) leukemia = system: HL-60(TB) leukemia
RXF 393 renal = system: RXF 393 renal
OVCAR-3 ovarian = system: OVCAR-3 ovarian
SNB-19 CNS = system: SNB-19 CNS
UO-31 renal = system: UO-31 renal

Compound | GI50 (OVCAR-4 ovarian) [µM] | TGI (OVCAR-4 ovarian) [µM] | GI50 (SN12C renal) [µM] | TGI (SN12C renal) [µM] | GI50 (CCRF-CEM leukemia) [µM] | TGI (CCRF-CEM leukemia) [µM] | GI50 (OVCAR-5 ovarian) [µM] | TGI (OVCAR-5 ovarian) [µM] | GI50 (HCT-116 colon) [µM] | TGI (HCT-116 colon) [µM] | GI50 (HL-60(TB) leukemia) [µM] | TGI (HL-60(TB) leukemia) [µM] | GI50 (RXF 393 renal) [µM] | TGI (RXF 393 renal) [µM] | GI50 (OVCAR-3 ovarian) [µM] | TGI (OVCAR-3 ovarian) [µM] | GI50 (SNB-19 CNS) [µM] | TGI (SNB-19 CNS) [µM] | GI50 (UO-31 renal) [µM] | TGI (UO-31 renal) [µM]
Nc1ncnc2occ(-c3ccc(NC(=O)Nc4cc(C(F)(F)F)cc(C(F)(F)F)c4)cc3)c12 | 1.81 | 5.92 | 2.12 | 5.51 | 4.5 | 19.2 | 4.39 | 8.99 | 2.63 | 5.64 | 4.13 | 12.9 | 1.24 | 4.51 | 3.24 | 6.71 | 4.1 | 9.54 | 1.93 | 6.89
CN1C(=O)c2cc(Cl)nc3c(NC(=O)c4cccc(Cl)c4)c(Cl)c(NC(=O)c4cccc(Cl)c4)c1c23 | 1.7 | 3.3 | 1.84 | 3.48 | 2.01 | 5.59 | 12.8 | 30.1 | 1.31 | 2.69 | 2.17 | 5.11 | 1.67 | 3.12 | 1.92 | 3.57 | 2.45 | 6.08 | 1.71 | 3.44
COC(=O)c1cc(Nc2ccc(O)c3c2C(=O)c2c([N+](=O)[O-])ccc(O)c2C3=O)cc(C(=O)OC)c1 | 3.99 | > 100 | 21.4 | > 100 | 4.27 | > 100 | 26 | > 100 | 4.17 | > 100 | 18.4 | 88.2 | 5.09 | > 100 | 3.42 | 21.3 | 22.2 | > 100 | 16.5 | > 100
CC1(C)N=C(N)N=C(N)N1c1ccc(OCC(=O)Nc2cccc(S(=O)(=O)F)c2)c(Cl)c1 |  | > 100 |  | > 100 |  | > 100 |  | > 100 |  | > 100 |  | > 100 |  | > 100 |  | > 76.8 |  | > 100 |  | > 100
CCCC/C(=N\N=C(N)N)c1ccc(F)cc1 | 5.27 | 20 | 4.37 | 17.3 | 2.23 | 11.7 | 5.08 | 17.8 | 3.51 | 14.6 | 2.29 | 6.09 | 2.04 | 5.81 | 2.9 | 9.5 | 2.64 | 13.8 | 5.28 | 20.1
Cc1ccc(C2=Nc3c(N)ncnc3NC(c3cccc(Nc4ccnc5cc(C(F)(F)F)ccc45)c3)C2)cc1 (stereo not given) | 4.33 | > 100 | 4.77 | > 100 | 3.85 | > 100 | 4.96 | > 100 | 2.86 | 10.5 | 2.95 | 74.7 | 1.69 | 3.55 | 3.47 | 15.1 | 6.71 | > 100 | 2.79 | 22.8
